PubChem BioAssay (NCI)
Values joined by “and” are separate entries in the source; they are usually repeats but may differ in a detail not shown here. Equal entries are not always repeated.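 Exposure lasted 48 hours, with cells grown in 96-well plates and compounds tested at five concentrations. GI50 marks 50% less growth. TGI denotes the concentration required for complete inhibition of growth.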

Assays:
Assay in all cases: growth of human tumour cells (NCI), 48 h
U251 CNS = tested on: U251 CNS
HS 578T breast = tested on: HS 578T breast
DU-145 prostate = tested on: DU-145 prostate
NCI/ADR-RES ovarian = tested on: NCI/ADR-RES ovarian
SN12C renal = tested on: SN12C renal
PC-3 prostate = tested on: PC-3 prostate
RPMI-8226 leukemia = tested on: RPMI-8226 leukemia
KM12 colon = tested on: KM12 colon
HOP-92 NSCLC = tested on: HOP-92 NSCLC
SK-MEL-2 melanoma = tested on: SK-MEL-2 melanoma

Row | Compound | GI50 (U251 CNS) | TGI (U251 CNS) | GI50 (HS 578T breast) | TGI (HS 578T breast) [nM] | GI50 (DU-145 prostate) [nM] | TGI (DU-145 prostate) | GI50 (NCI/ADR-RES ovarian) [nM] | TGI (NCI/ADR-RES ovarian) [nM] | GI50 (SN12C renal) [nM] | TGI (SN12C renal) | GI50 (PC-3 prostate) [nM] | TGI (PC-3 prostate) | GI50 (RPMI-8226 leukemia) | TGI (RPMI-8226 leukemia) | GI50 (KM12 colon) | TGI (KM12 colon) | GI50 (HOP-92 NSCLC) [nM] | TGI (HOP-92 NSCLC) | GI50 (SK-MEL-2 melanoma) | TGI (SK-MEL-2 melanoma)
1 | CC/C=C\C[C@H](O)C/C=C1/C(=O)C(Cl)=C[C@@H]1C/C=C\CCCC(=O)OC | 339 nM | 1390 nM | 626 nM | 6760 | 692 | 2700 nM | 581 | 9140 | 426 | 1330 nM | 540 | 2330 nM | 210 nM | 880 nM | 387 nM | 1140 nM | 2570 | 5460 nM | 843 nM | 3520 nM
2 | CC1(C)N=C(N)N=C(N)N1c1ccc(CCCCc2ccc(Cl)cc2S(=O)(=O)F)c(Cl)c1 | 291 nM | 15400 nM | 4050 nM | 30900 | 558 | 15800 nM | 5280 | > 100000 | 340 | 14700 nM | 323 | 16700 nM | 562 nM | 13200 nM | 551 nM | 14400 nM | 1320 | 12600 nM | 3070 nM | 25100 nM
3 | O=C(Nc1ccc(Br)cc1F)c1cc(F)ccc1O | 609 nM | > 100000 nM | 405 nM | 4390 | 698 | 64600 nM | 533 | 5400 | 366 | 2920 nM | 1150 | 7240 nM | 296 nM | 1360 nM | 2040 nM | 5450 nM | 192 | 566 nM | 398 nM | 2560 nM
4 | Oc1ccc(Nc2ncnc3c2sc2ncccc23)cc1 | 26.2 nM | > 100000 nM | > 100000 nM | > 100000 | 36.9 | > 100000 nM | 28.6 | > 35200 | 244 | > 100000 nM | 5150 | > 100000 nM | 48.5 nM | > 100000 nM | 1730 nM | > 100000 nM | 80 | 11600 nM | 27300 nM | > 100000 nM
5 | COc1cccc2c1C(=O)c1c(O)c3c(c(O)c1C2=O)C[C@@](O)(C(=O)CO)C[C@@H]3OC1CC(N)CC(C)O1 (stereo partly drawn) | 22.4 nM and 31.1 nM | 2200 nM and 873 nM | 50.4 nM and 119 nM | – | – | 175 nM and 1220 nM | 2750 | 28200 | 23.2 | 1430 nM and 1070 nM | 55.8 | 330 nM and 246 nM | 17.8 nM and 70.4 nM | 547 nM and 1720 nM | 79.8 nM and 51.5 nM | 1310 nM and 1890 nM | 63.8 | 275 nM and 353 nM | 125 nM and 76.9 nM | 315 nM and 220 nM
6 | COc1cccc(F)c1C(=O)c1cnc(NC2CCN(S(C)(=O)=O)CC2)nc1N | 2600 nM | > 25000 nM | 3830 nM | 15900 | 6540 | > 22800 nM | 6900 | > 25000 | 5080 | > 25000 nM | 984 | 12300 nM | 1960 nM | 11300 nM | 2020 nM | > 20700 nM | 1050 | 9150 nM | 3430 nM | 9940 nM
7 | N#Cc1c(NC(=O)NCc2ccccc2)sc2c1CCCCC2 | 535 nM | > 71200 nM | 314 nM | 9330 | 564 | 4710 nM | 420 | 27100 | 682 | > 100000 nM | 488 | > 100000 nM | 397 nM | – | 448 nM | > 100000 nM | 547 | 20900 nM | 2270 nM | > 100000 nM
8 | Cn1cc(C2=C(c3ccc(N)cc3)C(=O)NC2=O)c2ccccc21 | 11400 nM | > 25000 nM | 3010 nM | > 16100 | > 25000 | > 25000 nM | 21800 | > 25000 | 16300 | > 25000 nM | 17000 | > 25000 nM | > 23500 nM | > 25000 nM | 10900 nM | > 25000 nM | > 25000 | > 25000 nM | 8380 nM | > 19000 nM
9 | COc1ccc(OC)c2c1[nH]c(=O)c1c3ccccc3cn21 | 1370 nM | 2760 nM | 2180 nM | 5060 | 1510 | 3030 nM | 1500 | 3380 | 1230 | 2580 nM | 1390 | 4210 nM | 1070 nM | 3210 nM | 1290 nM | 2890 nM | 1500 | 3310 nM | 2000 nM | 4010 nM
10 | COC(=O)C[C@](O)(CCCC(C)(C)O)C(=O)O[C@@H]1C(OC)=C[C@]23CCCN2CCc2cc4c(cc2[C@H]13)OCO4 | 22.3 nM | 564 nM and 72.8 nM | 33.3 nM | – | 34.3 | – | 934 | 14600 | 40.5 | 666 nM and 526 nM | 28.8 | – | 28.8 nM | 419 nM and 840 nM | 32.6 nM | 885 nM and 182 nM | 22.4 | 633 nM and 156 nM | 45.5 nM | 994 nM and 198 nM
11 | CO/N=C(/C)c1cccc(Nc2cc(-n3nnc4ccccc43)nc3ccccc23)c1 | > 100000 nM | > 100000 nM | 42800 nM | > 100000 | 40400 | > 100000 nM | 61900 | > 100000 | 32800 | > 100000 nM | 8640 | 61900 nM | 15100 nM | > 100000 nM | – | 5780 nM | 3980 | 37400 nM | > 100000 nM | > 100000 nM
12 | CSC1=Nc2c(c(C)c(C)n2COC(CO)CO)C2=NC(=O)C(C)N12 (stereo not drawn) | > 100000 nM | > 100000 nM | > 100000 nM | > 100000 | > 100000 | > 100000 nM | > 100000 | > 100000 | > 100000 | > 100000 nM | > 100000 | > 100000 nM | > 100000 nM | > 100000 nM | > 100000 nM | > 100000 nM | > 100000 | > 100000 nM | > 100000 nM | > 100000 nM
